Laboratory results: patent publication US5827737A, “In vitro activation of cytotoxic T cells” (The Scripps Research Institute, priority 1996, dated 1998)
Where no end group is shown, it is not given here.

T1: K^b sol (Mus musculus, UniProt P01901)
T1 construct: K^b α1α2α3 domains (274 residues) and murine β2 microglobulin (99 residues); made in house; host or cells: Drosophila S2/M3 cells
T1 sequence (P01901 22-295): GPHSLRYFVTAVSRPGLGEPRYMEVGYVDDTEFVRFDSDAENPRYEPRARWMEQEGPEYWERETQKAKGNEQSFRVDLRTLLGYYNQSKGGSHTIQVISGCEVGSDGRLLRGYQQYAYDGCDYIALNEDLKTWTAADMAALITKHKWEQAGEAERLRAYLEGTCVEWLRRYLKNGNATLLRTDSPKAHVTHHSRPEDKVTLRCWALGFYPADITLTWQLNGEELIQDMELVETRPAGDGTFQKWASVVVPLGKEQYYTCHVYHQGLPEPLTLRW
T1 sequence (P01887 21-119 partner): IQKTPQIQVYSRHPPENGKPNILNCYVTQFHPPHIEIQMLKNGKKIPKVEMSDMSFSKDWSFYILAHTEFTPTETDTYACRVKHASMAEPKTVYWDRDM

B1: ovalbumin protein: ovalbumin (Sigma Chem. Co.) osmotically loaded into the cells (protein, UniProt P01012 2-386, looked up)
Ovalbumin: GSIGAASMEFCFDVFKELKVHHANENIFYCPIAIMSALAMVYLGAKDSTRTQINKVVRFDKLPGFGDSIEAQCGTSVNVHSSLRDILNQITKPNDVYSFSLASRLYAEERYPILPEYLQCVKELYRGGLEPINFQTAADQARELINSWVESQTNGIIRNVLQPSSVDSQTAMVLVNAIVFKGLWEKAFKDEDTQAMPFRVTEQESKPVQMMYQIGLFRVASMASEKMKILELPFASGTMSMLVLLPDEVSGLEQLESIINFEKLTEWTSSNVMEERKIKVYLPRMKMEEKYNLTSVLMAMGITDVFSSSANLSGISSAESLKISQAVHAAHAEINEAGREVVGSAEAGVDAASVSEEFRADHPFLFCIKHIATNAVLFFGRCVSP

Molecular target: T1, K^b sol
Assay: biochemical
Type: binding, murine
Details: not given

**Q.** How did the Kd turn out when DLRGYVYQGL [VSV-10N] was run?
**A.** 390 nM

**Q.** For GYVYQGL [VSV-7, GYVYQGL], which Kd is on record?
**A.** 53 nM

**Q.** With LRGYVYQGL [VSV-9N] as the molecule, how does the Kd read?
**A.** 7.3 nM

**Q.** For RGYVYQGLK [VSV-9C], which Kd is on record?
**A.** 6.9 nM

**Q.** Which Kd does the source give for RGYVYQGLKS [VSV-10C] here?
**A.** 21 nM

Same assay, conditions: read-out: KD

**Q.** With CC[C@H](C)[C@H](NC(=O)[C@@H](NC(=O)[C@@H](N)CO)[C@@H](C)CC)C(=O)N[C@@H](CC(N)=O)C(=O)N[C@@H](Cc1ccccc1)C(=O)N[C@@H](CCC(=O)O)C(=O)N[C@@H](CCCCN)C(=O)N[C@@H](CC(C)C)C(=O)O [OVA-8, reference compound] as the molecule, how does the Kd read?
**A.** 4.1 nM

**Q.** LESIINFEKL [OVA-10N] was tested. Which Kd did it give?
**A.** 280 nM

**Q.** SIINFEKLT [OVA-9C] was tested. Which Kd did it give?
**A.** 11 nM

**Q.** How did the Kd turn out when SIINFEKLTE [OVA-10C] was run?
**A.** 14 nM

Tested on: B3/CD8 T cell hybridoma
Assay: Antigen presentation assay: IL-2 production by B3/CD8 measured with CTLL ^3 H thymidine incorporation
Details: peptide added to the culture medium, or protein osmotically loaded

**Q.** With B1 as the molecule, how does the “T cell recognition of K^b -expressing Drosophila cells (IL-2 production)” value read?
**A.** no recognition occurred
